Measured values taken from patent publication US9833497B2, “Human originated EGF domain proteins and use of the same” (CHENGDU SOURCEBIO LIMITED-LIABILITY COMPANY, priority 2013, dated 2017).

Assays:
Assay type in all cases: cell-based
[1] = test system: Citrobacter diversus; test: MIC against Gram-negative bacteria: Citrobacter diversus; conditions: C. diversus; 10 h cultivation at 37° C.
Method in brief: (§1)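 Growth inhibition by human EGF domain proteins was scored in LB liquid culture seeded at 5×10^5 CFU/mL. Protein was applied as a two-fold dilution series in triplicate, with shaking incubation at 37° C; MIC is the lowest concentration giving no growth.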

[2] = test system: Aeromonas hydrophila; test: MIC against Gram-negative bacteria: Aeromonas hydrophila; conditions: A. hydrophila; 10 h cultivation at 37° C.
Method in brief: as §1

[3] = test system: Enterobacter cloacae; test: MIC against Gram-negative bacteria: Enterobacter cloacae; conditions: E. cloacae; 10 h cultivation at 37° C.
Method in brief: as §1

[4] = test system: Serratia marcescens; test: MIC against Gram-negative bacteria: Serratia marcescens; conditions: S. marcescens; 10 h cultivation at 37° C.
Method in brief: as §1

[5] = test system: Proteus mirabilis; test: MIC against Gram-negative bacteria: Proteus mirabilis; conditions: P. mirabilis; 10 h cultivation at 37° C.
Method in brief: as §1

[6] = test system: E. coli BL21; test: MIC against Gram-negative bacteria: E. coli BL21; conditions: E. coli BL21; 10 h cultivation at 37° C.
Method in brief: as §1

[7] = test system: Proteus vulgaris; test: MIC against Gram-negative bacteria: Proteus vulgaris; conditions: P. vulgaris; 10 h cultivation at 37° C.
Method in brief: as §1

[8] = test system: Pseudomonas aeruginosa; test: MIC against Gram-negative bacteria: Pseudomonas aeruginosa; conditions: P. aeruginosa; 10 h cultivation at 37° C.
Method in brief: as §1

[9] = test system: Moraxella catarrhalis; test: MIC against Gram-negative bacteria: Moraxella catarrhalis; conditions: M. catarrhalis; 10 h cultivation at 37° C.
Method in brief: as §1

[10] = test system: Klebsiella pneumonia; test: MIC against Gram-negative bacteria: Klebsiella pneumonia; conditions: K. pneumonia; 10 h cultivation at 37° C.
Method in brief: as §1

[11] = test system: E. coli DH5α; test: Antibacterial activity: MIC and growth curve against E. coli DH5α in 96-well plate; conditions: minimal inhibitory concentration against E. coli DH5α; 96-well plate, 5×10^5 CFU/mL, 37° C., judged after 8 h
Method in brief: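 Log-phase DH5α (OD600 about 0.5, 37° C, 185 rpm in LB) was pelleted, resuspended in fresh LB and seeded at 5×10^5 CFU/mL with recombinant protein at 50, 25 and 12.5 μg/mL (two-fold series), in triplicate. Plates were shaken at 175 rpm, 37° C, and OD600 was read every 30 min. MIC was the lowest concentration with no growth.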

Row | Substance | MIC [1] | MIC [2] | MIC [3] | MIC [4] | MIC [5] | MIC [6] | MIC [7] | MIC [8] | MIC [9] | MIC [10] | MIC [11]
1 | PRT1009 (DVDECLDQPCHPTGTAACHSLANAFYCQCLPGHTGQWCE; listed as Homo sapiens) | 12.5 µg/mL | 25 µg/mL | 50 µg/mL | 100 µg/mL | 50 µg/mL | 12.5 µg/mL | 25 µg/mL | 50 µg/mL | 25 µg/mL | 12.5 µg/mL | 25 µg/mL
2 | PRT1011 (RAPSCGFHHCHHGGLCLPSPKPGFPPRCACLSGYGGPDCL; listed as Homo sapiens) | 25 µg/mL | 50 µg/mL | 12.5 µg/mL | 25 µg/mL | 25 µg/mL | 50 µg/mL | 50 µg/mL | 12.5 µg/mL | 12.5 µg/mL | 50 µg/mL | 12.5 µg/mL
3 | PRT1012 (APKGCGPPSPCLYNGSCSETTGLGGPGFRCSCPHSSPGPRCQ; listed as Homo sapiens) | 50 µg/mL | 12.5 µg/mL | 50 µg/mL | 12.5 µg/mL | 12.5 µg/mL | 50 µg/mL | 25 µg/mL | 12.5 µg/mL | 12.5 µg/mL | 12.5 µg/mL | 12.5 µg/mL
4 | PRT1013 (LEDPCPPSFCSKRGRCHIQASGRPQCSCMPGWTGEQCQ; listed as Homo sapiens) | 12.5 µg/mL | 12.5 µg/mL | 12.5 µg/mL | 50 µg/mL | 12.5 µg/mL | 12.5 µg/mL | 25 µg/mL | 12.5 µg/mL | 25 µg/mL | 25 µg/mL | 12.5 µg/mL
5 | PRT1014 (LRDFCSANPCVNGGVCLATYPQIQCHCPPGFEGHACE; listed as Homo sapiens) | 12.5 µg/mL | 50 µg/mL | 12.5 µg/mL | 25 µg/mL | 12.5 µg/mL | 25 µg/mL | 50 µg/mL | 50 µg/mL | 50 µg/mL | 25 µg/mL | 12.5 µg/mL
6 | PRT1015 (DVNECFQDPGPCPKGTSCHNTLGSFQCLCPVGQEGPRCE; listed as Homo sapiens) | 50 µg/mL | 25 µg/mL | 12.5 µg/mL | 50 µg/mL | 50 µg/mL | 50 µg/mL | 12.5 µg/mL | 12.5 µg/mL | 12.5 µg/mL | 50 µg/mL | 12.5 µg/mL
7 | PRT1016 (RAGPCPPRGCSNGGTCQLMPEKDSTFHLCLCPPGFIGPDCE; listed as Homo sapiens) | 50 µg/mL | 25 µg/mL | 12.5 µg/mL | 12.5 µg/mL | 50 µg/mL | 25 µg/mL | 25 µg/mL | 50 µg/mL | 100 µg/mL | 25 µg/mL | 12.5 µg/mL
8 | PRT1017 (NPDNCVSHQCQNGGTCQDGLDTYTCLCPETWTGWDCS; listed as Homo sapiens) | 12.5 µg/mL | 12.5 µg/mL | 12.5 µg/mL | 50 µg/mL | 50 µg/mL | 12.5 µg/mL | 12.5 µg/mL | 12.5 µg/mL | 12.5 µg/mL | 12.5 µg/mL | 50 µg/mL
9 | PRT1018 (DVDECETQGPPHCRNGGTCQNSAGSFHCVCVSGWGGTSCE; listed as Homo sapiens) | 12.5 µg/mL | 50 µg/mL | 25 µg/mL | 25 µg/mL | 12.5 µg/mL | 12.5 µg/mL | 50 µg/mL | 50 µg/mL | 50 µg/mL | 12.5 µg/mL | 25 µg/mL
10 | PRT1019 (NLDDCIAATCAPGSTCIDRVGSFSCLCPPGRTGLLCH; listed as Homo sapiens) | 50 µg/mL | 12.5 µg/mL | 50 µg/mL | 25 µg/mL | 50 µg/mL | 50 µg/mL | 12.5 µg/mL | 12.5 µg/mL | 12.5 µg/mL | 25 µg/mL | 12.5 µg/mL
